Laboratory results as given in US7579469B2, “Glucocorticoid mimetics, methods of making them, pharmaceutical compositions, and uses thereof” (Boehringer Ingelheim Pharmaceuticals, Inc., priority 2003, dated 2009).

These compounds were tested against T1, human glucocorticoid receptor (GR) complex (Homo sapiens, UniProt P04150) (assay: Glucocorticoid receptor competitive binding assay (fluorescence polarization)). Conditions: competition with TAMRA-labeled dexamethasone.
T1 construct: made in house; host or cells: insect expression system (baculovirus lysate)
T1 sequence (P04150 1-777): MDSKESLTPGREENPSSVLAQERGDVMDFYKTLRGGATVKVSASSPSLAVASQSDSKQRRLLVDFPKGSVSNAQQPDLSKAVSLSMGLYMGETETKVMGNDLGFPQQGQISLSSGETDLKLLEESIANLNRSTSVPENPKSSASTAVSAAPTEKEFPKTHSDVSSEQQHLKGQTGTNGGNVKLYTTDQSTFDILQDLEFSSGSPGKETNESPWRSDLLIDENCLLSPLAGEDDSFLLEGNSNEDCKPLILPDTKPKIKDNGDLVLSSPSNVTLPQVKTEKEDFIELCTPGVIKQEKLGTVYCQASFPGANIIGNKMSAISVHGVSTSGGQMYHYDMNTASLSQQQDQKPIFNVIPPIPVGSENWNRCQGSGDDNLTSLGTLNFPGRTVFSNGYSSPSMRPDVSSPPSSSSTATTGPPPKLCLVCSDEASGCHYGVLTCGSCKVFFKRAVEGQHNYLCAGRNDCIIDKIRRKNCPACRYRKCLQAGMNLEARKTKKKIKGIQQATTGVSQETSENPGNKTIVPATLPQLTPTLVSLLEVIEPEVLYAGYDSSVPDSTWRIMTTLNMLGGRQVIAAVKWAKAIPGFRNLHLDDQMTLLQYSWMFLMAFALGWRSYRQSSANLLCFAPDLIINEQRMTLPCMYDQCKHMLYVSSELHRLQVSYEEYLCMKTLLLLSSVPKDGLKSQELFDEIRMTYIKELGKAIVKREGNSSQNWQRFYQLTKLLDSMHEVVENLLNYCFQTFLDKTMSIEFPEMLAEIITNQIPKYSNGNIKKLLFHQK
Experimental: Compounds of the invention were evaluated for binding to the steroid receptor by a fluorescence polarization competitive binding assay.
A. Glucocorticoid Receptor Competitive Binding Assay
Step 1. Characterization of the Fluorescent Probe
The wavelengths for maximum excitation and emission of the fluorescent probe should first be measured. An example of such a probe is rhodamine (TAMRA)-labeled dexamethasone.
The affinity of the probe for the steroid receptor was then determined in a titration experiment. The fluorescence polarization value of the probe in assay buffer was measured on an SLM-8100 fluorometer using the excitation and emission maximum values described above. Aliquots of expression vector lysate were added and fluorescence polarization was measured after each addition until no further change in polarization value was observed. Non-linear least squares regression analysis was used to calculate the dissociation constant of the probe from the polarization values obtained for lysate binding to the probe.
Step 2. Screening for Inhibitors of Probe Binding
This assay uses fluorescence polarization (FP) to quantitate the ability of test compounds to compete with tetramethyl rhodamine (TAMRA)-labeled dexamethasone for binding to a human glucocorticoid receptor (GR) complex prepared from an insect expression system. The assay buffer was: 10 mM TES, 50 mM KCl, 20 mM Na2MoO4.2H20, 1.5 mM EDTA, 0.04% w/v CHAPS, 10% v/v glycerol, 1 mM dithiothreitol, pH 7.4. Test compounds were dissolved to 1 mM in neat DMSO and then further diluted to 10× assay concentration in assay buffer supplemented with 10% v/v DMSO. Test compounds were serially diluted at 10× assay concentrations in 10% DMSO-containing buffer in 96-well polypropylene plates. Binding reaction mixtures were prepared in 96-well black Dynex microtiter plates by sequential addition of the following assay components to each well: 15 μL of 10× test compound solution, 85 μL of GR-containing baculovirus lysate diluted 1:170 in assay buffer, and 50 μL of 15 nM TAMRA-labeled dexamethasone. Positive controls were reaction mixtures containing no test compound; negative controls (blanks) were reaction mixtures containing 0.7 μM to 2 μM dexamethasone. […] IC50 values were determined by iterative non-linear curve fitting of the FP signal data to a 4-parameter logistic equation.
With `CSc1cc2c(c(C(C)(C)CC(O)(Cn3ccc(=O)c4ccccc43)C(F)(F)F)c1)OCC2` (stereo not drawn) [1-[2-Hydroxy-4-methyl-4-(5-methylsulfanyl-2,3-dihydrobenzofuran-7-yl)-2-trifluoromethylpentyl]-1H-quinolin-4-one] the “activity in the GR binding assay” value was “potent activity”. With `CC(=NO)c1cccc(C(C)(C)CC(O)(Cn2ccc(=O)c3ccccc32)C(F)(F)F)c1` (stereo not drawn) [1-(2-Hydroxy-4-{3-[1-(hydroxyimino)ethyl]phenyl}4-methyl-2-trifluoromethylpentyl)-1H-quinolin-4-one] the “activity in the GR binding assay” value was “potent activity”. In the case of `Cc1cn(CC(O)(CC(C)(C)c2cc(F)ccc2O)C(F)(F)F)cc(C)c1=O` (stereo not drawn) [1-[4-(5-Fluoro-2-hydroxyphenyl)-2-hydroxy-4-methyl-2-trifluoromethylpentyl]-3,5-dimethyl-1H-pyridin-4-one], the “activity in the GR binding assay” value is reported as “potent activity”. With `Cc1cc(C)c(O)c(C(C)(C)CC(O)(Cn2ccc(=O)c3ccccc32)C(F)(F)F)c1` (stereo not drawn) [1-[2-Hydroxy-4-(2-hydroxy-3,5-dimethylphenyl)-4-methyl-2-trifluoromethylpentyl]-1H-quinolin-4-one] the “activity in the GR binding assay” value was “potent activity”. `COc1ccc(F)cc1C(C)(C)CC(O)(CN1CCN(C(=O)c2ccco2)CC1)C(F)(F)F` (stereo not drawn) [{4-[4-(5-Fluoro-2-methoxyphenyl)-2-hydroxy-4-methyl-2-trifluoromethylpentyl]piperazin-1-yl}furan-2-ylmethanone] was tested, and the “activity in the GR binding assay” value was “potent activity”. In the case of `COc1ccc(F)cc1C(C)(C)CC(O)(CN1CCNc2ccccc21)C(F)(F)F` (stereo not drawn) [2-(3,4-Dihydro-2H-quinoxalin-1-ylmethyl)-1,1,1-trifluoro-4-(5-fluoro-2-methoxyphenyl)-4-methylpentan-2-ol], the “activity in the GR binding assay” value is reported as “potent activity”. In the case of `CC1(CC(O)(Cn2ccc(=O)c3ccccc32)C(F)(F)F)CCOc2ccc(F)cc21` (stereo not drawn) [1-[3,3,3-Trifluoro-2-(6-fluoro-4-methylchroman-4-ylmethyl)-2-hydroxypropyl]-1H-quinolin-4-one], the “activity in the GR binding assay” value is reported as “potent activity”. `CC(C)(CC(O)(Cn1ccc(=O)c2ccccc21)C(F)(F)F)c1cccc2c1OCO2` (stereo not drawn) was tested, and the “activity in the GR binding assay” value was “potent activity”. `CC(C)(CC(O)(Cn1ccc(=O)c2ncccc21)C(F)(F)F)c1cc(S(C)(=O)=O)cc2c1OCC2` (stereo not drawn) [1-[2-Hydroxy-4-(5-methanesulfonyl-2,3-dihydrobenzofuran-7-yl)-4-methyl-2-trifluoromethylpentyl]-1H-[1,5]naphthyridin-4-one] was tested, and the “activity in the GR binding assay” value was “potent activity”. For `COc1ccc(F)cc1C(C)(C)CC(O)(CN1CCS(=O)(=O)c2ccccc21)C(F)(F)F` (stereo not drawn) [2-(1,1-Dioxo-2,3-dihydro-1H-1λ^6-benzo[1,4]thiazin-4-ylmethyl)-1,1,1-trifluoro-4-(5-fluoro-2-methoxyphenyl)-4-methylpentan-2-ol], the “activity in the GR binding assay” value was “potent activity”. With `CC(C)(CC(O)(Cn1ccc(=O)c2ccccc21)C(F)(F)F)c1cccc(C(=O)C2CC2)c1` (stereo not drawn) the “activity in the GR binding assay” value was “potent activity”. `Cc1ccc(F)cc1C(C)(C)CC(O)(Cn1ccc(=O)c2ncccc21)C(F)(F)F` (stereo not drawn) [1-[4-(5-Fluoro-2-methylphenyl)-2-hydroxy-4-methyl-2-trifluoromethylpentyl]-1H-[1,5]naphthyridin-4-one] was tested, and the “activity in the GR binding assay” value was “potent activity”. With `COc1ccc(F)cc1C(C)(C)CC(O)(Cn1cc(C(F)(F)F)cc([N+](=O)[O-])c1=O)C(F)(F)F` (stereo not drawn) [1-[4-(5-Fluoro-2-methoxyphenyl)-2-hydroxy-4-methyl-2-trifluoromethylpentyl]-3-nitro-5-trifluoromethyl-1H-pyridin-2-one] the “activity in the GR binding assay” value was “potent activity”. For `CC(C)(CC(O)(Cn1ccc(=O)c2ccccc21)C(F)(F)F)c1cc(Br)cc2c1OCO2` (stereo not drawn) [1-[4-(6-Bromobenzo[1,3]dioxol-4-yl)-2-hydroxy-4-methyl-2-trifluoromethylpentyl]-1H-quinolin-4-one], the “activity in the GR binding assay” value was “potent activity”. `CC(C)(CC(O)(Cn1ccc(=O)c2ccccc21)C(F)(F)F)c1cc(CN2CCOCC2)ccc1O` (stereo not drawn) [1-[2-Hydroxy-4-(2-hydroxy-5-morpholin-4-ylmethylphenyl)-4-methyl-2-trifluoromethylpentyl]-1H-quinolin-4-one] was tested, and the “activity in the GR binding assay” value was “potent activity”. For `Cc1cn(CC(O)(CC(C)(C)c2cc(S(C)(=O)=O)cc3c2OCC3)C(F)(F)F)c2ccccc2c1=O` (stereo not drawn) [1-[2-Hydroxy-4-(5-methanesulfonyl-2,3-dihydrobenzofuran-7-yl)-4-methyl-2-trifluoromethylpentyl]-3-methyl-1H-quinolin-4-one], the “activity in the GR binding assay” value was “potent activity”. In the case of `COc1c(C)cc(C)cc1C(C)(C)CC(O)(Cn1ccc(=O)c2ccccc21)C(F)(F)F` (stereo not drawn), the “activity in the GR binding assay” value is reported as “potent activity”. In the case of `Cc1ccc(C(C)(C)CC(O)(Cn2ccc(=O)c3ccccc32)C(F)(F)F)cc1F` (stereo not drawn) [1-[4-(3-Fluoro-4-methylphenyl)-2-hydroxy-4-methyl-2-trifluoromethylpentyl]-1H-quinolin-4-one], the “activity in the GR binding assay” value is reported as “potent activity”. In the case of `COc1ccc(-c2cccs2)cc1C(C)(C)CC(O)(Cn1ccc(=O)c2ccccc21)C(F)(F)F` (stereo not drawn) [1-[2-Hydroxy-4-(2-methoxy-5-thiophen-2-ylphenyl)-4-methyl-2-trifluoromethylpentyl]-1H-quinolin-4-one], the “activity in the GR binding assay” value is reported as “potent activity”. `COc1ccc(F)cc1C(C)(C)CC(O)(Cn1cc(C(F)(F)F)cc(Cl)c1=O)C(F)(F)F` (stereo not drawn) [3-Chloro-1-[4-(5-fluoro-2-methoxyphenyl)-2-hydroxy-4-methyl-2-trifluoromethylpentyl]-5-trifluoromethyl-1H-pyridin-2-one] was tested, and the “activity in the GR binding assay” value was “potent activity”. For `COc1ccc(C(C)=O)cc1C(C)(C)CC(O)(Cn1ccc(=O)c2ccccc21)C(F)(F)F` (stereo not drawn) [1-[4-(5-Acetyl-2-methoxyphenyl)-2-hydroxy-4-methyl-2-trifluoromethylpentyl]-1H-quinolin-4-one], the “activity in the GR binding assay” value was “potent activity”. With `COc1ccc(F)cc1C(C)(C)CC(O)(Cn1ccc(=O)c2ccc(Cl)cc21)C(F)(F)F` (stereo not drawn) [7-Chloro-1-[4-(5-fluoro-2-methoxyphenyl)-2-hydroxy-4-methyl-2-trifluoromethylpentyl]-1H-quinolin-4-one] the “activity in the GR binding assay” value was “potent activity”. `CC(C)(CC(O)(Cn1ccc(=O)c2ccccc21)C(F)(F)F)c1cccc(O)c1` (stereo not drawn) [1-[2-Hydroxy-4-(3-hydroxyphenyl)-4-methyl-2-trifluoromethylpentyl]-1H-quinolin-4-one] was tested, and the “activity in the GR binding assay” value was “potent activity”. With `CON=C(C)c1cccc(C(C)(C)CC(O)(Cn2ccc(=O)c3ccccc32)C(F)(F)F)c1` (stereo not drawn) [1-(2-Hydroxy-4-{3-[1-(methoxyimino)ethyl]phenyl}4-methyl-2-trifluoromethylpentyl)-1H-quinolin-4-one] the “activity in the GR binding assay” value was “potent activity”. With `CC(=O)COc1cccc(C(C)(C)CC(O)(Cn2ccc(=O)c3ccccc32)C(F)(F)F)c1` (stereo not drawn) [1-{2-Hydroxy-4-methyl-4-[3-(2-oxopropoxy)phenyl]-2-trifluoromethylpentyl}-1H-quinolin-4-one] the “activity in the GR binding assay” value was “potent activity”. With `CC(C)(CC(O)(Cn1ccc(=O)c2ccccc21)C(F)(F)F)c1cc(F)ccc1OCc1ccccc1` (stereo not drawn) the “activity in the GR binding assay” value was “potent activity”. In the case of `CC(C)Oc1cccc(C(C)(C)CC(O)(Cn2ccc(=O)c3ccccc32)C(F)(F)F)c1` (stereo not drawn), the “activity in the GR binding assay” value is reported as “potent activity”.
